What was measured:
[1] = tested on: Smn protein in SMA patient fibroblast cells (GM03813); assay: Smn protein assay in cultured cells (SMN HTRF); type: cell-based, human; conditions: SMA patient fibroblast cells, 48 hours; for EC1.5x for Smn protein expression: 7-point concentration curve, SMN HTRF, concentration producing 1.5 times Smn protein vs DMSO vehicle control; for maximum fold (Fold) increase of Smn protein: 7-point concentration data, fold relative to vehicle control
Procedure, shortened: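 Smn protein abundance in treated SMA fibroblasts was measured by HTRF after 48 h compound exposure. The reported EC1.5× is the concentration producing 1.5 times vehicle Smn levels.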

[2] = tested on: SMN2 minigene mRNA (SMN2-A minigene) in HEK293H cells; assay: SMN2 minigene mRNA splicing RT-qPCR assay in cultured cells; type: cell-based, human; conditions: Homo sapiens, HEK293-H; concentration increasing full length SMN2 mRNA 1.5-fold relative to vehicle-treated cells; HEK293H cells with SMN2-A minigene, 24 hours, 7-point concentration data; read-out: EC1.5x for production of full length SMN2 mRNA
Procedure, shortened: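 Potency reflects the concentration that lifts full-length SMN2 minigene mRNA 1.5-fold above vehicle in stably transfected HEK293H cells after 24 h of treatment. Transcript abundance came from RT-qPCR as (1+E)^−Ct, normalized to GAPDH; endogenous SMN1/SMN2 are not detected.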

Compound | EC1.5x for Smn protein expression [1] | maximum fold (Fold) increase of Smn protein [1] | EC (1.5-fold increase) [2] [µM]
CC(C)N1CCC(c2ccc3nc(-c4ccc5nn(C)cc5c4)cc(=O)n3c2)CC1 [Compound 608, 2-(2-methyl-2H-indazol-5-yl)-7-[1-(propan-2-yl)piperidin-4-yl]-4H-pyrido[1,2-a]pyrimidin-4-one] | ** (an EC1.5× between >1 μM and ≤3 μM is indicated by two stars (**)) | **** (a fold increase between >1.5 and ≤1.65 is indicated by four stars (****)) | 0.1 to 0.3
Cc1cn2cc(-c3cc(=O)n4cc(C5CCN(CCO)CC5)ccc4n3)cc(C)c2n1 [Compound 617, 2-(2,8-dimethylimidazo[1,2-a]pyridin-6-yl)-7-[1-(2-hydroxyethyl)piperidin-4-yl]-4H-pyrido[1,2-a]pyrimidin-4-one] | **** (an EC1.5x≤0.3 μM is indicated by four stars (****)) | ***** (a fold increase >1.65 is indicated by five stars (*****)) | < 0.1
CCc1cc(-c2cc(=O)n3cc(N4CCN(C5CCC5)[C@@H](C)C4)ccc3n2)cn2cc(C)nc12 [Compound 652, 7-[(3S)-4-cyclobutyl-3-methylpiperazin-1-yl]-2-(8-ethyl-2-methylimidazo[1,2-a]pyridin-6-yl)-4H-pyrido[1,2-a]pyrimidin-4-one] | **** (an EC1.5x≤0.3 μM is indicated by four stars (****)) | ***** (a fold increase >1.65 is indicated by five stars (*****)) | < 0.1
CCc1nc(C)cn2nc(-c3cc(=O)n4cc(C5CCNCC5)ncc4n3)cc12 [Compound 653, 2-(4-ethyl-6-methylpyrazolo[1,5-a]pyrazin-2-yl)-7-(piperidin-4-yl)-4H-pyrazino[1,2-a]pyrimidin-4-one] | **** (an EC1.5x≤0.3 μM is indicated by four stars (****)) | ***** (a fold increase >1.65 is indicated by five stars (*****)) | < 0.1
Cc1cn2nc(-c3cc(=O)n4cc(N5CCN(CCOCCO)[C@H](C)C5)cc(C)c4n3)cc2c(C)n1 [Compound 670, 2-(4,6-dimethylpyrazolo[1,5-a]pyrazin-2-yl)-7-{(3R)-4-[2-(2-hydroxyethoxy)ethyl]-3-methylpiperazin-1-yl}-9-methyl-4H-pyrido[1,2-a]pyrimidin-4-one] | **** (an EC1.5x≤0.3 μM is indicated by four stars (****)) | ***** (a fold increase >1.65 is indicated by five stars (*****)) | < 0.1
Cc1cn2nc(-c3cc(=O)n4cc(C5CCN(C)CC5)cc(C)c4n3)cc2c(C)n1 [Compound 672, 2-(4,6-dimethylpyrazolo[1,5-a]pyrazin-2-yl)-9-methyl-7-(1-methylpiperidin-4-yl)-4H-pyrido[1,2-a]pyrimidin-4-one] | **** (an EC1.5x≤0.3 μM is indicated by four stars (****)) | ***** (a fold increase >1.65 is indicated by five stars (*****)) | < 0.1
CCc1cc(-c2cc(=O)n3cc(N4C[C@@H](C)N[C@@H](C)C4)ccc3n2)cn2cc(C)nc12 [Compound 675, 7-[(3R,5S)-3,5-dimethylpiperazin-1-yl]-2-(8-ethyl-2-methylimidazo[1,2-a]pyridin-6-yl)-4H-pyrido[1,2-a]pyrimidin-4-one] | **** (an EC1.5x≤0.3 μM is indicated by four stars (****)) | ***** (a fold increase >1.65 is indicated by five stars (*****)) | < 0.1
CCc1cc(-c2cc(=O)n3cc(N4CCCN(C)CC4)ccc3n2)cn2cc(C)nc12 [Compound 676, 2-(8-ethyl-2-methylimidazo[1,2-a]pyridin-6-yl)-7-(4-methyl-1,4-diazepan-1-yl)-4H-pyrido[1,2-a]pyrimidin-4-one] | *** (an EC1.5× between >0.3 μM and ≤1 μM is indicated by three stars (***)) | ***** (a fold increase >1.65 is indicated by five stars (*****)) | < 0.1

Source: patent US11753407B2, “Compounds for treating spinal muscular atrophy” (PTC Therapeutics, Inc., priority 2012, dated 2023)
